Measurements from patent publication US12269831B2, “Modulators of cystic fibrosis transmembrane conductance regulator” (Vertex Pharmaceuticals Incorporated, priority 2020, dated 2025).

target: T1, CFTR (F508del/MF-HBE cells) (Homo sapiens, UniProt P13569, DEL508-508); experiment: Ussing chamber assay of CFTR-mediated short-circuit currents (potentiator identification); format: cell-based; conditions: CFTR-mediated Isc, 18-24 h incubation at 37° C. with 10 μM (14S)-8-[3-(2-{dispiro[2.0.2.1]heptan-7-yl}ethoxy)-1H-pyrazol-1-yl]-... corrector, 20% human serum
T1 construct: human bronchial epithelial (HBE) cells derived from CF subjects heterozygous for F508del and a minimal function CFTR mutation (F508del/MF-HBE); endogenous in cells; host or cells: primary human bronchial epithelial (HBE) cells from CF subjects, genotype F508del/minimal function
Experimental: Ussing Chamber Assay of CFTR-Mediated Short-Circuit Currents
Ussing chamber experiments were performed using human bronchial epithelial (HBE) cells derived from CF subjects heterozygous for F508del and a minimal function CFTR mutation (F508del/MF-HBE) and cultured as previously described (Neuberger T, Burton B, Clark H, Van Goor F Methods Mol Biol 2011:741:39-54). After four days the apical media was removed, and the cells were grown at an air liquid interface for >14 days prior to use.
To isolate the CFTR-mediated short-circuit (Isc) current, F508del/MF-HBE grown on Costar® Snapwell™ cell culture inserts were mounted in an Ussing chamber and the transepithelial ISC was measured under voltage-clamp recording conditions (Vhold=0 mV) at 37° C. The basolateral solution contained (in mM) 145 NaCl, 0.83 K2HPO4, 3.3 KH2PO4, 1.2 MgCl2, 1.2 CaCl2, 10 Glucose, 10 HEPES (pH adjusted to 7.4 with NaOH) and the apical solution contained (in mM) 145 NaGluconate, 1.2 MgCl2, 1.2 CaCl2, 10 glucose, 10 HEPES (pH adjusted to 7.4 with NaOH) and 30 μM amiloride to block the epithelial sodium channel. Forskolin (20 μM) was added to the apical surface to activate CFTR, followed by apical addition of a CFTR inhibitor cocktail consisting of BPO, GlyH-101 and CFTR inhibitor 172 (each at 20 μM final assay concentration) to specifically isolate CFTR currents. The CFTR-mediated Isc (μA/cm^2) for each condition was determined from the peak forskolin response to the steady-state current following inhibition.
Identification of Potentiator Compounds
The activity of the CFTR potentiator compounds on the CFTR-mediated Isc was determined in Ussing chamber studies as described above. The F508del/MF-HBE cell cultures were incubated with the potentiator compounds at a range of concentrations in combination with 10 μM (14S)-8-[3-(2-{dispiro[2.0.2.1]heptan-7-yl}ethoxy)-1H-pyrazol-1-yl]-12,12-dimethyl-2λ^6-thia-3,9,11,18,23-pentaazatetracyclo[17.3.1.111,14.05,10]tetracosa-1(22),5,7,9,19(23),20-hexaene-2,2,4-trione for 18-24 hours at 37° C. and in the presence of 20% human serum. The concentration of potentiator compounds and (14S)-8-[3-(2-{dispiro[2.0.2.1]heptan-7-yl}ethoxy)-1H-pyrazol-1-yl]-12,12-dimethyl-2λ^6-thia-3,9,11,18,23-pentaazatetracyclo[17.3.1.111,14.05,10]tetracosa-1(22),5,7,9,19(23),20-hexaene-2,2,4-trione used during the 18-24 hours incubations was kept constant throughout the Ussing chamber measurement of the CFTR-mediated Isc to ensure compounds were present throughout the entire experiment. The efficacy and potency of the putative F508del potentiators was compared to that of the known Vertex potentiator, ivacaftor (N-[2,4-bis(1,1-dimethylethyl)-5-hydroxyphenyl]-1,4-dihydro-4-oxoquinoline-3-carboxamide).

T1 sequence (P13569 with tags, fused parts or gaps DEL508-508): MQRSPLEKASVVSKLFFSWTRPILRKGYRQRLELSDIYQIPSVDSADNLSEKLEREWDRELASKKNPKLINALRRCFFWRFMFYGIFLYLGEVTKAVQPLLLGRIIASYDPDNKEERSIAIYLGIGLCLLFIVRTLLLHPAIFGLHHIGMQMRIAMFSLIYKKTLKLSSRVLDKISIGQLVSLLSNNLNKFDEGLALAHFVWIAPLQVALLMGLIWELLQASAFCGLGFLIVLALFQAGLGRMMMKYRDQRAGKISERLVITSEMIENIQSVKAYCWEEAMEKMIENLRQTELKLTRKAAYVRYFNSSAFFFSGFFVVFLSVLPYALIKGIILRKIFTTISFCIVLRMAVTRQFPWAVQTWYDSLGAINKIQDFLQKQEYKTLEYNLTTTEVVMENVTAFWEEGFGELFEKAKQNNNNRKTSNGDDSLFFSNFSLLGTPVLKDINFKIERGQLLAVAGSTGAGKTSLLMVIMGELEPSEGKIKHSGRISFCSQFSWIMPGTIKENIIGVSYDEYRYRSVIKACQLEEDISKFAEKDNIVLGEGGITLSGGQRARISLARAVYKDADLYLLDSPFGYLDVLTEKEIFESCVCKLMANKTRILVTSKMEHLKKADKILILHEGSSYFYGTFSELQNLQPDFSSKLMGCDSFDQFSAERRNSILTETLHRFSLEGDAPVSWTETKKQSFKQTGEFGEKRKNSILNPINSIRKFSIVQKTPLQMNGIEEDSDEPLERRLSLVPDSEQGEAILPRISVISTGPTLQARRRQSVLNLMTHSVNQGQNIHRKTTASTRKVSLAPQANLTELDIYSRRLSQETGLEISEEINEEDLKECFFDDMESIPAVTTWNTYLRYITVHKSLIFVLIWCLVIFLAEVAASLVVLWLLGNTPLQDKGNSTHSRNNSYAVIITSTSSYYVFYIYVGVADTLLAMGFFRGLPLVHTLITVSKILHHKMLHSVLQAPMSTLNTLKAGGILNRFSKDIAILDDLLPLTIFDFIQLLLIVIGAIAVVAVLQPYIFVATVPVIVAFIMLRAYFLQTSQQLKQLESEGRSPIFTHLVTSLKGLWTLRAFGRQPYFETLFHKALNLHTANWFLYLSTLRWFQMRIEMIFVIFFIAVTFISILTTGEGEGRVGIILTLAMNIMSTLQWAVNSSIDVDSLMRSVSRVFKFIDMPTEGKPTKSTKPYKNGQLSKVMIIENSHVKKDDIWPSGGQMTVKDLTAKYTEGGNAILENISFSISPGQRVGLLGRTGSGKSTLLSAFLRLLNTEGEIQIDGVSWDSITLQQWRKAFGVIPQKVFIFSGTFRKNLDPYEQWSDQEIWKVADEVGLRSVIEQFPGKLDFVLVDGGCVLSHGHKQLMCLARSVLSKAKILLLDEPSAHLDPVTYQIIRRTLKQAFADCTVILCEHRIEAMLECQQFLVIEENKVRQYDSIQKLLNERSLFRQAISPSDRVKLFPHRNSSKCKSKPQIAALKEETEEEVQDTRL

C[C@@H]1CCCc2ccc(F)c(c2)C(O)(C(F)(F)F)C2=NN=C(O2)c2nc(c(C(F)(F)F)cc2N)O1 (stereo partly drawn) [Compound 18, (15R)-20-amino-8-fluoro-15-methyl-6,18-bis(trifluoromethyl)-16,23-dioxa-3,4,21-triazatetracyclo[15.3.1.12,5.17,11]tricosa-1(21),2,4,7(22),8,10,17,19-octaen-6-ol] and CC1CCCCCC(O)(C(F)(F)F)C2=NN=C(O2)c2nc(c(C(F)(F)F)cc2N)O1 (centres unmarked) [Compound 7, 17-amino-12-methyl-6,15-bis(trifluoromethyl)-13,19-dioxa-3,4,18-triazatricyclo[12.3.1.12,5]nonadeca-1(18),2,4,14,16-pentaen-6-ol] cannot be ordered by EC50: < 500 nM for the first, < 500 nM for the second.

First: Nc1cc(C(F)(F)F)c2nc1-c1nnc(o1)[C@](O)(C(F)(F)F)CCCCCCO2 [Compound 6, (6S)-17-amino-6,15-bis(trifluoromethyl)-13,19-dioxa-3,4,18-triazatricyclo[12.3.1.12,5]nonadeca-1(18),2,4,14,16-pentaen-6-ol]
Second: Nc1cc(C(F)(F)F)c2nc1-c1nnc(o1)[C@@](O)(C(F)(F)F)CCCCCC[S@@+]2[O-] [Compound 20, (6R,13R)-17-amino-13-oxido-6,15-bis(trifluoromethyl)-19-oxa-13-thionia-3,4,18-triazatricyclo[12.3.1.12,5]nonadeca-1(18),2,4,14,16-pentaen-6-ol]
The EC50 of the first is higher: > 1000 nM for the first, 500 to 1000 nM for the second.

Nc1cc(C(F)(F)F)c2nc1-c1nnc(o1)C(O)(C(F)(F)F)CCCCc1cc(F)cc(c1)O2 (single isomer, unassigned) [Compound 31, 20-amino-13-fluoro-6,18-bis(trifluoromethyl)-16,23-dioxa-3,4,21-triazatetracyclo[15.3.1.12,5.111,15]tricosa-1(21),2,4,11(22),12,14,17,19-octaen-6-ol] and Nc1cc(C(F)(F)F)c2nc1-c1nnc(o1)C(O)(C(F)(F)F)CCCCc1ccccc1O2 (centres unmarked) [Compound 17, 21-amino-6,19-bis(trifluoromethyl)-17,23-dioxa-3,4,22-triazatetracyclo[16.3.1.12,5.011,16]tricosa-1(22),2,4,11(16),12,14,18,20-octaen-6-ol] cannot be ordered by EC50: < 500 nM for the first, < 500 nM for the second.

CC1CCC(O)(C(F)(F)F)C2=NN=C(O2)c2nc(c(C(F)(F)F)cc2N)Oc2cc(F)cc1c2 (single isomer, unassigned) [Compound 33, 19-amino-12-fluoro-9-methyl-6,17-bis(trifluoromethyl)-15,22-dioxa-3,4,20-triazatetracyclo[14.3.1.12,5.110,14]docosa-1(20),2,4,10(21),11,13,16,18-octaen-6-ol] and C[C@@H]1CCC(O)CC[C@](O)(C(F)(F)F)C2=NN=C(O2)c2nc(c(C(F)(F)F)cc2N)O1 (single isomer, unassigned) [Compound 45] cannot be ordered by EC50: < 500 nM for the first, < 500 nM for the second.

C[C@@H]1CC2CC2CC[C@](O)(C(F)(F)F)C2=NN=C(O2)c2nc(c(C(F)(F)F)cc2N)O1 (single isomer, unassigned) [Compound 64] and C[C@@H]1CC(O)CCC[C@](O)(C(F)(F)F)C2=NN=C(O2)c2nc(c(C(F)(F)F)cc2N)O1 (single isomer, unassigned) [Compound 43] cannot be ordered by EC50: < 500 nM for the first, < 500 nM for the second.

[2H]C([2H])([2H])[C@@]1([2H])Oc2nc(c(N)cc2C(F)(F)F)C2=NN=C(O2)[C@@](O)(C(F)(F)F)CCCCC1([2H])[2H] [Compound 39, (6R,12R)-17-amino-11,11,12-trideuterio-12-(trideuteriomethyl)-6,15-bis(trifluoromethyl)-13,19-dioxa-3,4,18-triazatricyclo[12.3.1.12,5]nonadeca-1(18),2,4,14,16-pentaen-6-ol] and C[C@@H]1CCCCC[C@@](O)(C(F)(F)F)C2=NN=C(O2)c2nc(c(C(F)(F)F)cc2N)O1 [Compound 12, (6S,12R)-17-Amino-12-methyl-6,15-bis(trifluoromethyl)-13,19-dioxa-3,4,18-triazatricyclo[12.3.1.12,5]nonadeca-1(18),2,4,14,16-pentaen-6-ol] cannot be ordered by EC50: < 500 nM for the first, < 500 nM for the second.

C[C@@H]1CCCCC[C@](O)(C(F)(F)F)C2=NN=C(O2)c2nc(c(C(F)(F)F)cc2N)O1 [Compound 11, (6R,12R)-17-amino-12-methyl-6,15-bis(trifluoromethyl)-13,19-dioxa-3,4,18-triazatricyclo[12.3.1.12,5]nonadeca-1(18),2,4,14,16-pentaen-6-ol] and C[C@H]1CCCCC[C@](O)(C(F)(F)F)C2=NN=C(O2)c2nc(c(C(F)(F)F)cc2N)O1 [Compound 14, (6R,12S)-17-amino-12-methyl-6,15-bis(trifluoromethyl)-13,19-dioxa-3,4,18-triazatricyclo[12.3.1.12,5]nonadeca-1(18),2,4,14,16-pentaen-6-ol] cannot be ordered by EC50: < 500 nM for the first, < 500 nM for the second.

Nc1cc(C(F)(F)F)c2nc1-c1nnc(o1)C(O)(C(F)(F)F)CCCCc1cc(F)cc(c1)O2 (single isomer, unassigned) [Compound 32, 20-amino-13-fluoro-6,18-bis(trifluoromethyl)-16,23-dioxa-3,4,21-triazatetracyclo[15.3.1.12,5.111,15]tricosa-1(21),2,4,11(22),12,14,17,19-octaen-6-ol] and Nc1cc(C(F)(F)F)c2nc1-c1nnc(o1)[C@@](O)(C(F)(F)F)CCCCC[S+]2[O-] (single isomer, unassigned) [Compound 23] cannot be ordered by EC50: > 1000 nM for the first, > 1000 nM for the second.

CC(C)C1CCCCC[C@](O)(C(F)(F)F)C2=NN=C(O2)c2nc(c(C(F)(F)F)cc2N)O1 (single isomer, unassigned) [Compound 34] and CC1CCCCCC(O)(C(F)(F)F)C2=NN=C(O2)c2nc(c(C(F)(F)F)cc2N)O1 (centres unmarked) [Compound 8, 17-amino-12-methyl-6,15-bis(trifluoromethyl)-13,19-dioxa-3,4,18-triazatricyclo[12.3.1.12,5]nonadeca-1(18),2,4,14,16-pentaen-6-ol] cannot be ordered by EC50: < 500 nM for the first, < 500 nM for the second.

Nc1cc(C(F)(F)F)c2nc1-c1nnc(o1)[C@@](O)(C(F)(F)F)CCCCCC[S@+]2[O-] [Compound 19, (6R,13S)-17-Amino-13-oxido-6,15-bis(trifluoromethyl)-19-oxa-13-thionia-3,4,18-triazatricyclo[12.3.1.12,5]nonadeca-1(18),2,4,14,16-pentaen-6-ol] and Nc1cc(C(F)(F)F)c2nc1-c1nnc(o1)C(O)(C(F)(F)F)CCCCCS2(=O)=O (single isomer, unassigned) [Compound 15, 16-amino-12,12-dioxo-6,14-bis(trifluoromethyl)-18-oxa-12λ^6-thia-3,4,17-triazatricyclo[11.3.1.12,5]octadeca-1(17),2,4,13,15-pentaen-6-ol] cannot be ordered by EC50: < 500 nM for the first, < 500 nM for the second.

CC(C)(C)c1cccc(CC2CCCCC[C@](O)(C(F)(F)F)C3=NN=C(O3)c3nc(c(C(F)(F)F)cc3N)O2)c1 (single isomer, unassigned) [Compound 51] and C[C@@H]1CC2CC2CC[C@](O)(C(F)(F)F)C2=NN=C(O2)c2nc(c(C(F)(F)F)cc2N)O1 (single isomer, unassigned) [Compound 63] cannot be ordered by EC50: < 500 nM for the first, < 500 nM for the second.

For C[C@@H]1CCCCC(O)C(O)(C(F)(F)F)C2=NN=C(O2)c2nc(c(C(F)(F)F)cc2N)O1 (single isomer, unassigned) [Compound 57], the EC50 was < 500 nM.
